Results: ChEMBL document CHEMBL1148456, “Structure-based design and synthesis of non-nucleoside, potent, and orally bioavailable adenosine deaminase inhibitors” (J Med Chem, 2004)
Values after ≈ are worked out from the molar mass of the structure shown.

How the values were obtained:
[1] = tested on: Mus musculus; assay: Antitumor activity after administration (p.o.) with U937 cells in mice at a dose of 10 mg/kg; format: functional, U-937; conditions: route oral
[2] = Half-life in rat after po administration at a dose of 10 mg/kg; format: ADME, organism-based; design: dose 10 mg/kg, route oral; conditions: in vivo
[3] = In vitro clearance in human liver microsomes; format: ADME, Microsome; conditions: read-out: Clearance
[4] = Oral bioavailability in rat (dose 10 mg/kg); format: ADME, organism-based; conditions: in vivo
[5] = species on record: Canis familiaris; assay: (§1) In vitro clearance in dog liver microsomes; format: ADME, Canis lupus familiaris, Microsome
[6] = tested on: Mus musculus; assay: Antitumor activity after administration (p.o.) in mice U937 cells at a dose of 32 mg/kg twice daily dosing (b.i.d.); format: functional, U-937; conditions: route oral
[7] = (§2) In vitro clearance in rat liver microsomes; format: ADME, Microsome; conditions: read-out: Clearance
[8] = Maximum plasma concentration in rat after po administration; format: ADME, organism-based; design: route oral
[9] = AUC in rat after po administration at a dose of 10 mg/kg; format: ADME, organism-based; design: dose 10 mg/kg, route oral; conditions: plasma, read-out: AUC 0-24h
[10] = tested on: Mus musculus; assay: Antitumor activity after administration (p.o.) in mice U937 cells at a dose of 32 mg/kg once daily dosing (u.i.d.); format: functional, U-937; conditions: route oral
[11] = tested on: Mus musculus; assay: Antitumor activity after administration (p.o.) in mice U937 cells at a dose of 10 mg/kg twice daily dosing (b.i.d.); format: functional, U-937; conditions: route oral
[12] = Oral bioavailability in dog (dose 10 mg/kg); format: ADME, organism-based, Canis lupus familiaris; conditions: in vivo
[13] = Solubility was determined; format: physicochemical
[14] = as §1; format: ADME, Canis lupus familiaris, Microsome; conditions: read-out: Clearance
[15] = species on record: Rattus norvegicus; assay: as §2; format: ADME, Microsome
[16] = tested on: Mus musculus; assay: Antitumor activity after administration (i.p.) in mice U937 cells at a dose of 0.025 mg/kg; format: functional, U-937; conditions: route intraperitoneal
[17] = tested on: Mus musculus; assay: Antitumor activity after administration (i.p.) in mice U937 cells at a dose of 0.25 mg/kg; conditions: route intraperitoneal
[18] = tested on: Mus musculus; assay: Antitumor activity after administration (i.p.) in mice U937 cells at a dose of 2.5 mg/kg; conditions: route intraperitoneal
[19] = molecular target: T1, Adenosine deaminase (Homo sapiens) (UniProt P00813); conditions: Rattus norvegicus
T1 sequence (whole entry): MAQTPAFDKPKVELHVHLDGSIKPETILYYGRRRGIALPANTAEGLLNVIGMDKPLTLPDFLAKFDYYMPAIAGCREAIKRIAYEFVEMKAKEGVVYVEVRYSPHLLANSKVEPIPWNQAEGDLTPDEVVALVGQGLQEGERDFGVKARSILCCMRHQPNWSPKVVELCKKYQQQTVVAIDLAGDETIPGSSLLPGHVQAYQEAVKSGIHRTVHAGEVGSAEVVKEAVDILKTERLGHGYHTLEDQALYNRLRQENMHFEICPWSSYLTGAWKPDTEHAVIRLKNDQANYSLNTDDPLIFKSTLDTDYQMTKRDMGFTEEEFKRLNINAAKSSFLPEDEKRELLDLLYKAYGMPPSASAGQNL
Description: In vivo anti-inflammatory activity against adenosine deaminase (ADA) in the adjuvant arthritis model in rat (p.o.)

| Structure (SMILES) | half-life [2] [h] | CLint scaled [3] [mL/min/kg] | bioavailability [4] [%] | CLint scaled [7] [mL/min/kg] | AUC [9] [ng·h/mL] | bioavailability [12] [%] | Solubility [13] [µg/mL] | further results |
| --- | --- | --- | --- | --- | --- | --- | --- | --- |
| Nc1ncnc2c1ncn2[C@@H]1O[C@H](CO)[C@@H](O)[C@@H]1O [VIDARABINE] |  |  |  |  |  |  |  | MST [1]: 23.5 days |
| C[C@H](O)[C@@H](CCOc1ccc2ccccc2c1)n1cnc(C(N)=O)c1 | 1.12 | 3.8 | 42 | 79 | 1850 | 91 | 80 (≈ 236 µM) | Clearance [5]: 11 mL/min/kg; MST [6]: 35.5 days; Cmax [8]: 970 ng/mL; MST [10]: 30 days; MST [11]: 30 days |
| Cn1c(CCC(=O)Nc2ccc3ccn(CC[C@H](CO)n4cnc(C(N)=O)c4)c3c2)nc2ccccc21 |  | 123 |  |  | < 100 |  | 4.2 (≈ 8.41 µM) | CLint scaled [14]: 97 mL/min/kg; Clearance [15]: 35 mL/min/kg; Cmax [8]: < 100 ng/mL |
| C[C@H](O)[C@@H](CCOc1ccc2ccccc2c1)n1cnc(C(N)=O)c1.Cl |  |  |  |  |  |  |  | MST [6]: 42.5 days; MST [10]: 38 days; MST [11]: 34 days |
| OC[C@H]1O[C@@H](n2cnc3c2N=CNC[C@H]3O)C[C@@H]1O [PENTOSTATIN] |  |  |  |  |  |  |  | MST [16]: 28.5 days; MST [17]: 34 days; MST [18]: 42.5 days |
| C[C@H](O)[C@@H](CCc1cccc2ccccc12)n1cnc(C(N)=O)c1 | 0.66 | 45 | 30 | 307 | 1370 | 38 | 481 (≈ 1490 µM) |  |
| C[C@H](O)[C@@H](CCc1cccc(Cl)c1Cl)n1cnc(C(N)=O)c1 | 1.66 | 4.5 | 44 | 111 | 2110 | 43 | 500 (≈ 1460 µM) | ED30 [19]: 1.6 mg/kg |
